Data from patent US10532053B2, “Histone deacetylase inhibitor, and preparation method and use thereof” (GUANGDONG ZHONGSHENG PHARMACEUTICAL CO., LTD, priority 2015, dated 2020).
Read-outs that look alike come from different tables or passages of the source.

Tests used:
[1] = target: T1, HDAC8 (Homo sapiens, UniProt Q9BY41); experiment: HDAC inhibitory activity, fluorescence-coupled acetylated peptide substrate assay
T1 sequence (Q9BY41 1-377): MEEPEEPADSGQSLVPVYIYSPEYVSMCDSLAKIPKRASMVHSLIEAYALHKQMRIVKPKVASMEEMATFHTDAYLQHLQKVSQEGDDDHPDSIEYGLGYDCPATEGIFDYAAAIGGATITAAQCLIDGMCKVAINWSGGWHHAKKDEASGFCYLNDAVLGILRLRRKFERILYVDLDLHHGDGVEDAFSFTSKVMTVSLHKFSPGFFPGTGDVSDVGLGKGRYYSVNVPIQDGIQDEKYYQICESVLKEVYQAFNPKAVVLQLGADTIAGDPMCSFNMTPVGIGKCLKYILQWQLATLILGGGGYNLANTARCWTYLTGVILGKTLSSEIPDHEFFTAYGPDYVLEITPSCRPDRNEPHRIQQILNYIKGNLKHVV
Protocol: (§2) The HDAC inhibitory activity was determined by fluorescence-coupled acetylated peptide substrate assay (Lys-Ac-AMC). HDAC1 protein was purchased from BPS Bioscience, and the reaction buffer system was a modified tris(hydroxymethyl)aminomethane buffer (pH 7.0). The small molecule compounds of the present invention were prepared by being dissolved in 100% DMSO. HDAC was prepared in a buffer at a certain concentration as an enzyme solution; trypsin and fluorescent group 4-amino-7-coumarin coupled-acetylated peptide (Ac-peptide) substrate were prepared in a buffer at a certain concentration as a substrate solution. The compounds were added into the reaction wells in a 384-well plate at a designed concentration of 10 μM, 1 μM, 0.5 μM, 0.1 μM, 0.05 μM, 0.01 μM, 0.005 μM, 0.001 μM, and 0.00005 μM, respectively, and then 15 μl of the HDAC solution was added into the reaction wells (15 μl of blank buffer to the control well). […] The results were analyzed by GraphPad Prism software and IC50 values were calculated according to the formula: Y=Background Data+(Top Data−Background Data)/(1+10^((Log IC50−X) a curve slope)), where Y: the inhibition rate (%) and X: the concentration of the compound.

[2] = tested on: Human cervical cancer cell Hela; experiment: Cell proliferative activity (MTT / cck-8); type: cell-based; conditions: incubated for 96 hours, read-out: Half-Inhibitory Concentration IC50 Human cervical cancer cell Hela
Protocol: (§1) Tumor cell line A375: human melanoma cell; H460: lung adenocarcinoma cell; Hela: human cervical cancer cell; HepG2: human liver cancer cell; and SKOV-3: human ovarian cancer cell, were all purchased from ATCC and cultured to logarithmic phase according to the cultivation protocol recommended by ATCC. The cells in the logarithmic phase were plated onto a 96-well plate at 2000-3000 cells/well; in the case of adherent cells, the cells should be adherent to the wall. […] After that, the cell proliferative activity was determined by MTT assay for the tumor cells representing the solid tumor model and by cck-8 assay for the tumor cells representing the hematologic tumor model.

[3] = tested on: Human lung cancer cell H460; experiment: Cell proliferative activity (MTT / cck-8); type: cell-based; conditions: NCI-H460, incubated for 96 hours, read-out: Half-Inhibitory Concentration IC50 Human lung cancer cell H460
Protocol: as §1

[4] = tested on: Human liver cancer cell HepG2; experiment: Cell proliferative activity (MTT / cck-8); type: cell-based; conditions: incubated for 96 hours, read-out: Half-Inhibitory Concentration IC50 Human liver cancer cell HepG2
Protocol: as §1

[5] = tested on: Human ovarian cancer cell SKOV-3; experiment: Cell proliferative activity (MTT / cck-8); type: cell-based; conditions: SK-OV-3, incubated for 96 hours, read-out: Half-Inhibitory Concentration IC50 Human ovarian cancer cell SKOV-3
Protocol: as §1

[6] = tested on: Human melanoma A375; experiment: Cell proliferative activity (MTT / cck-8); type: cell-based; conditions: A-375, incubated for 96 hours, read-out: Half-Inhibitory Concentration IC50 Human melanoma A375
Protocol: as §1

[7] = target: T2, HDAC1 (Homo sapiens, UniProt Q13547); experiment: HDAC inhibitory activity, fluorescence-coupled acetylated peptide substrate assay (Lys-Ac-AMC); type: biochemical
T2 construct: purchased BPS Bioscience
Protocol: as §2

[8] = target: T3, HDAC6 (Homo sapiens, UniProt Q9UBN7); experiment: HDAC inhibitory activity, fluorescence-coupled acetylated peptide substrate assay; type: biochemical; conditions: for Selection Ratio HDAC1/6: ratio of IC50 HDAC1 to HDAC6; for Selection Ratio HDAC8/6: ratio of IC50 HDAC8 to HDAC6
T3 sequence (Q9UBN7 1-1215): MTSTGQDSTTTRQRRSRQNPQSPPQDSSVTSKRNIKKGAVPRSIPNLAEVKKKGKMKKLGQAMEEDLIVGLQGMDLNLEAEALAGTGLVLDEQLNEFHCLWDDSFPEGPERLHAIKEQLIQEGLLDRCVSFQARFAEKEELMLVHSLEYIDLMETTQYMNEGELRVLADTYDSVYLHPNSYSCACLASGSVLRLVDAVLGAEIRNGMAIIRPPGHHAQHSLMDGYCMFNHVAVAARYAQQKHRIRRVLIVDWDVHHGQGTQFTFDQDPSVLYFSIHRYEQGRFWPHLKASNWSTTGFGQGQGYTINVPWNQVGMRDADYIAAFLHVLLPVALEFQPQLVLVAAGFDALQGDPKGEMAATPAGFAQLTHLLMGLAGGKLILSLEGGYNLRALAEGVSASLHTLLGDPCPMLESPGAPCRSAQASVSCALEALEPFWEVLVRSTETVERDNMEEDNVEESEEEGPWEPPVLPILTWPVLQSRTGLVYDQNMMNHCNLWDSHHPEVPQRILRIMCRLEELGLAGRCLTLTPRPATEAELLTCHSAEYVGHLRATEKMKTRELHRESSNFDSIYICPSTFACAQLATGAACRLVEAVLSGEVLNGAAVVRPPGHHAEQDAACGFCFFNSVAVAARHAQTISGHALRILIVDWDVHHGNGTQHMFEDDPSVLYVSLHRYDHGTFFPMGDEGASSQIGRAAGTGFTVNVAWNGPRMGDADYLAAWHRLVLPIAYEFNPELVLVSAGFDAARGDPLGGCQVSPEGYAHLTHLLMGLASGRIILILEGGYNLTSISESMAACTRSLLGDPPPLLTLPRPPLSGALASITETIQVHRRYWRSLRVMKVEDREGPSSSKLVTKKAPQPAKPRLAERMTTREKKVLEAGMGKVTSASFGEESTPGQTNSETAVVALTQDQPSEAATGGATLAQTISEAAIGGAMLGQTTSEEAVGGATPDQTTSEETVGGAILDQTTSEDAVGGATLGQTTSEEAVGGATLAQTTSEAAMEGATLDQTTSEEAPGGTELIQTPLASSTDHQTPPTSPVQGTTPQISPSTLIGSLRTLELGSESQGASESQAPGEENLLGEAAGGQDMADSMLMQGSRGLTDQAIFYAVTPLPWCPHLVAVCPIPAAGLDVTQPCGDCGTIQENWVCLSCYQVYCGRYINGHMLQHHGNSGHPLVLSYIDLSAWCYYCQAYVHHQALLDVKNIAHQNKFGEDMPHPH
Protocol: as §2

T2 sequence (Q13547 whole entry): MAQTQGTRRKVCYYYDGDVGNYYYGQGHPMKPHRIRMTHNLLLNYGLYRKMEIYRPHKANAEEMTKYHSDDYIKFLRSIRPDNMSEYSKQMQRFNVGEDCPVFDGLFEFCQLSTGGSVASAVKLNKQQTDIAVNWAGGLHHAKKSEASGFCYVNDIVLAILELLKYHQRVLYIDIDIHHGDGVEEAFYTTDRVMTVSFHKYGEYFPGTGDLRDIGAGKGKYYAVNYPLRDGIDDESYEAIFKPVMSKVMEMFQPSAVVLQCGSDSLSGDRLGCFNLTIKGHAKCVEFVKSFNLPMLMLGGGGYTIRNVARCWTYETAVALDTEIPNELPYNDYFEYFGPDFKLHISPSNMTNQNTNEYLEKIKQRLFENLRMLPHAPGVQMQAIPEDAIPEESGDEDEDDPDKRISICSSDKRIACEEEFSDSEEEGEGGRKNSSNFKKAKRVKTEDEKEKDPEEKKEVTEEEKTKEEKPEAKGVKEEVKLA

Row | Compound | IC50 ([1]; IC50 HDAC8, Table 2) [nM] | IC50 [2] [nM] | IC50 [3] [nM] | IC50 [4] [nM] | IC50 [5] [nM] | IC50 [6] [nM] | IC50 ([7]; Table 2) [nM] | IC50 ([8]; Table 2) [nM] | IC50 ([1]; IC50 HDAC8, Table 3) [nM] | IC50 ([7]; Table 3) [nM] | IC50 ([8]; Table 3) [nM] | Selection Ratio HDAC1/6 [8] | Selection Ratio HDAC8/6 [8] | IC50 ([1]; read-out: IC50 HDAC8, Table 3) [nM]
1 | Cc1nc(N(C)c2ccc(Oc3ccc(C(=O)NO)cc3)cc2)c2ccccc2n1 [II-6, N-hydroxy-4-(4-(methyl(2-methyl-4-quinazolinyl)amino)phenoxy)benzamide] | > 1000 | 100 to 1000 | 100 to 1000 | 100 to 1000 | 100 to 1000 | 100 to 1000 | 100 to 1000 | 10 to 100 | 4930 | 552 | 72 | 7.7 | 68.5 | 
2 | CN(c1ccc(Oc2ccc(C(=O)NO)cn2)cc1)c1ncnc2ccccc12 [II-18, N-hydroxy-6-(4-(methyl(4-quinazolinyl)amino)phenoxy)nicotinamide] | > 1000 | 100 to 1000 | 100 to 1000 | 100 to 1000 | 100 to 1000 | 100 to 1000 | 100 to 1000 | 10 to 100 | 2920 | 437 | 15 | 29.1 | 194.4 | 
3 | Cc1nc(N(C)c2ccc(OCCCCCC(=O)NO)cc2)c2ccccc2n1 [II-4, N-hydroxy-6-(4-(methyl(2-methyl-4-quinazolinyl)amino)phenoxy)hexanamide] | > 1000 | > 1000 | > 1000 | > 1000 | 100 to 1000 | > 1000 | 100 to 1000 | 10 to 100 |  | 272 | 34 | 8.0 | 44.4 | 1510
4 | Cc1nc(Nc2ccc(OCCC(=O)NO)cc2)c2ccccc2n1 [II-24, N-hydroxy-3-(4-((2-methyl-4-quinazolinyl)amino)phenoxy)propionamide] | > 1000 | > 1000 | > 1000 | > 1000 | > 1000 | > 1000 | > 1000 | 100 to 1000 |  |  |  |  |  | 
5 | Cc1nc(N(C)c2ccc(OCC(=O)NO)cc2)c2ccccc2n1 [II-1, N-hydroxy-2-(4-(methyl(2-methyl-4-quinazolinyl)amino)phenoxy)acetamide] | > 1000 | 100 to 1000 | 100 to 1000 | 100 to 1000 | 100 to 1000 | > 1000 | 100 to 1000 | < 10 |  | 172 | 8.6 | 20.0 | 137.3 | 1180
6 | Cc1nc(N(C)c2ccc(OCCCCC(=O)NO)cc2)c2ccccc2n1 [II-3, N-hydroxy-5-(4-(methyl(2-methyl-4-quinazolinyl)amino)phenoxy)pentanamide] | > 1000 | > 1000 | 100 to 1000 | > 1000 | 100 to 1000 | > 1000 | 100 to 1000 | 10 to 100 |  | 451 | 57 | 7.9 | 29.8 | 1700
7 | Cc1nc(N(C)c2ccc(OCc3ccc(C(=O)NO)cc3)cc2)c2ccccc2n1 [II-5, N-hydroxy-4-((4-(methyl(2-methyl-4-quinazolinyl)amino)phenoxy)methyl)benzamide] | > 1000 | > 1000 | > 1000 | > 1000 | > 1000 | > 1000 |  | < 10 | 2380 |  | 6.4 | 6.9 | 371.3 | 
8 | CN(c1ccc(OCc2ccc(C(=O)NO)cc2)cc1)c1ncnc2ccccc12 [II-16, N-hydroxy-4-((4-(methyl(4-quinazolinyl)amino)phenoxy)methyl)benzamide] | > 1000 | > 1000 | > 1000 | > 1000 | > 1000 | > 1000 | 100 to 1000 | < 10 | 1680 | 385 | 10 | 38.5 | 167.6 | 

The remaining lines, values ahead:

Row | IC50 ([1]; IC50 HDAC8, Table 2) [nM] | IC50 [2] [nM] | IC50 [3] [nM] | IC50 [4] [nM] | IC50 [5] [nM] | IC50 [6] [nM] | IC50 ([7]; Table 2) [nM] | IC50 ([8]; Table 2) [nM] | IC50 ([1]; IC50 HDAC8, Table 3) [nM] | IC50 ([7]; Table 3) [nM] | IC50 ([8]; Table 3) [nM] | Selection Ratio HDAC1/6 [8] | Selection Ratio HDAC8/6 [8] | IC50 ([1]; read-out: IC50 HDAC8, Table 3) [nM] | Compound
9 | > 1000 | 100 to 1000 | 100 to 1000 | 100 to 1000 | 100 to 1000 | > 1000 | 100 to 1000 | 10 to 100 |  |  |  |  |  |  | Cc1nc(N(C)c2cccc(OCC(=O)NO)c2)c2ccccc2n1 [III-12, N-hydroxy-2-(3-(methyl(2-methyl-4-quinazolinyl)amino)phenoxy)acetamide]
10 | > 1000 | 100 to 1000 | 100 to 1000 | 100 to 1000 | 100 to 1000 | > 1000 | 10 to 100 | 10 to 100 |  |  |  |  |  |  | Cc1nc(N(C)c2cccc(OCCCCCC(=O)NO)c2)c2ccccc2n1 [III-15, N-hydroxy-6-(3-(methyl(2-methyl-4-quinazolinyl)amino)phenoxy)hexanamide]
11 | > 1000 | 10 to 100 | 100 to 1000 | 10 to 100 | 10 to 100 | 100 to 1000 | 100 to 1000 | 100 to 1000 |  |  |  |  |  |  | Cc1nc(N(C)c2cccc(OCCCCC(=O)NO)c2)c2ccccc2n1 [III-14, N-hydroxy-5-(3-(methyl(2-methyl-4-quinazolinyl)amino)phenoxy)pentanamide]
12 | > 1000 | > 1000 | 100 to 1000 | 100 to 1000 | 100 to 1000 | 100 to 1000 | > 1000 | > 1000 |  |  |  |  |  |  | CCCN(c1ccc(OC)c(OCCCC(=O)NO)c1)c1nc(C)nc2ccccc12 [IV-2, N-hydroxy-4-(2-methoxy-5-((2-methyl-4-quinazolinyl)(propyl)amino)phenoxy)butanamide]
13 | > 1000 | 100 to 1000 | 100 to 1000 | 10 to 100 | 10 to 100 | 100 to 1000 | 100 to 1000 | 100 to 1000 |  |  |  |  |  |  | Cc1nc(N(C)c2cccc(OCCCC(=O)NO)c2)c2ccccc2n1 [III-13, N-hydroxy-4-(3-(methyl(2-methyl-4-quinazolinyl)amino)phenoxy)butanamide]
14 | > 1000 | 100 to 1000 | 100 to 1000 | 100 to 1000 | 100 to 1000 | 100 to 1000 | 100 to 1000 | 10 to 100 |  |  |  |  |  |  | COc1ccc(N(C)c2nc(C)nc3ccccc23)cc1OCCCCCC(=O)NO [III-4, N-hydroxy-6-(2-methoxy-5-(methyl(2-methyl-4-quinazolinyl)amino)phenoxy)hexanamide]
